Biological target: T1, S. aureus UDP-N-acetylglucosamine enolpyruvoyl transferase, MurA (Staphylococcus aureus, UniProt P84058)
T1 sequence (P84058 1-421): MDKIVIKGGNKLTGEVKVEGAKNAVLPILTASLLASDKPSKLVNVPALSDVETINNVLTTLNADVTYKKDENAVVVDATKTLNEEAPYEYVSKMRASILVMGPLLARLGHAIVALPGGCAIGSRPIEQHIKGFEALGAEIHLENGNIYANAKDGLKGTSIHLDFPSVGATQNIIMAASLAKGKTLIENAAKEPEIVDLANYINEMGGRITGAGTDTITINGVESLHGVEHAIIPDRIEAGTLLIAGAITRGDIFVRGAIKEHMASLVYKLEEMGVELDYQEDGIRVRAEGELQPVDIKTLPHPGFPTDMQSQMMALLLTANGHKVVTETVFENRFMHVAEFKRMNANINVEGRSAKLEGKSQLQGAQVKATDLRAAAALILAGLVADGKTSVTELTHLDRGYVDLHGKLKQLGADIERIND
Assay: Inhibitory activity against MurA (S. aureus)
Type: biochemical
Details: (S) S. aureus enzyme
Experimental: Evaluation of the Inhibitory Activity of Test Compounds Against Enzymes which Catalyze Bacterial Cell Wall Biosynthesis
S. aureus and E. coli UDP-N-acetylglucosamine enolpyruvoyl transferase, MurA
Preparation of Enzyme Solution:
The enzyme solution is prepared by admixing the following: 50 mM Tris/HCl pH 8.0, […] 1 M Tris, 5 mM DTT, […] 1 M DTT, 20% Glycerol 4 ml 50% Glycerol, add water to 10 ml.
Preparation of Stop Solution:
The stop solution is prepared by mixing the following: 4.2% ammonium molybdate in 4N HCl, 8.4 g/200 ml 4N HCl, 0.045% malachite green, 90 mg/200 ml water, then stir 1 part ammonium molybdate with 2 parts malachite green for 30 min.
A procedure similar to that described by C. T. Walsh in Biochemistry 33, 10646-10651, is used to evaluate the inhibitory activity of test compounds against MurA, the enzyme which catalyzes the first step of bacterial cell wall biosynthesis. Experiments are performed by adding a solution of test compound (in a mixture of dimethylsulfoxide and water) and an enzyme solution to a well. After a pre-incubation period of 10 mintues at 37° C., Tris/BME buffer and assay buffer are added. A start point optical density (OD0) reading is taken at 340 nm immediately following the addition of assay buffer. After incubation for 1 hr at 37° C., the stop solution is added and the color is allowed to develop for 30 minutes. An end point OD1 reading at […] is then taken. […]

Structure (SMILES)	MurA IC50	IC50 [µM]
O=C1OC(=Cc2cccc3ccccc23)C(O)=C1c1ccc(C=NO)cc1 (mixture of isomers) [Example 73]	>25 (S) μg/mL	
COc1cc(/C=C2\OC(=O)C(c3cccc(Cl)c3)=C2O)ccc1-c1ccccc1Cl [Example 18]		13.7
COc1ccccc1-c1ccc(/C=C2\OC(=O)C(c3cc(Cl)cc(Cl)c3)=C2O)cc1OC [Example 19]		36.2
COc1ccccc1-c1ccc(/C=C2\OC(=O)C(c3ccc(Cl)c(Cl)c3)=C2O)cc1OC [Example 20]		> 53.3
COc1cc(/C=C2\OC(=O)C(c3cc(Cl)cc(Cl)c3)=C2O)ccc1-c1ccccc1Cl [Example 21]		10.6
COc1cc(/C=C2\OC(=O)C(c3cccc(Cl)c3)=C2O)ccc1-c1ccccc1C [Example 22]		21.5
COc1ccccc1-c1ccc(/C=C2\OC(=O)C(c3cccc(Cl)c3)=C2O)cc1C [Example 23]		33.4
COc1ccccc1-c1ccc(/C=C2\OC(=O)C(c3cc(Cl)cc(Cl)c3)=C2O)cc1C [Example 24]		15.4
COc1cc(/C=C2\OC(=O)C(c3cc(Cl)cc(Cl)c3)=C2O)ccc1-c1ccccc1C [Example 25]		11
Cc1cc(/C=C2\OC(=O)C(c3cccc(Cl)c3)=C2O)ccc1-c1ccccc1C(F)(F)F [Example 26]		8.76
Cc1cc(/C=C2\OC(=O)C(c3cc(Cl)cc(Cl)c3)=C2O)ccc1-c1ccccc1C(F)(F)F [Example 27]		4.07
Cc1ccccc1-c1ccc(/C=C2\OC(=O)C(c3cccc(Cl)c3)=C2O)cc1C [Example 28]		24.8
Cc1ccccc1-c1ccc(/C=C2\OC(=O)C(c3cc(Cl)cc(Cl)c3)=C2O)cc1C [Example 29]		4.57
Cc1cc(/C=C2\OC(=O)C(c3cccc(Cl)c3)=C2O)ccc1-c1ccccc1Cl [Example 30]		7.09
Cc1cc(C=C2OC(=O)C(c3cc(Cl)cc(Cl)c3)=C2O)ccc1-c1ccccc1Cl [Example 31]	2 (S) μg/mL	
COc1cc(/C=C2\OC(=O)C(c3cccc(Cl)c3)=C2O)ccc1-c1ccccc1C(F)(F)F [Example 32]		21.1
COc1cc(/C=C2\OC(=O)C(c3cc(Cl)cc(Cl)c3)=C2O)ccc1-c1ccccc1C(F)(F)F [Example 33]		7.89
O=C1O/C(=C\c2ccc(N3CCOCC3)c(F)c2)C(O)=C1c1cc(Cl)cc(Cl)c1 [Example 34]	22 (S) μg/mL	
COc1ccc(C=C2OC(=O)C(c3cccc(Cl)c3)=C2O)c2ccccc12 [Example 35]	>25 (S) μg/mL	
COc1ccc(/C=C2\OC(=O)C(c3cc(Cl)cc(Cl)c3)=C2O)c2ccccc12 [Example 36]		14.5

Structure (SMILES)	MurA IC50	IC50 [µM]
O=C1O/C(=C\c2ccc(N3CCOCC3)c3ccccc23)C(O)=C1c1cccc(Cl)c1 [Example 37]		> 57.6
O=C1O/C(=C\c2ccc(N3CCOCC3)c3ccccc23)C(O)=C1c1cc(Cl)cc(Cl)c1 [Example 38]		> 53.4
Cc1cc(/C=C2\OC(=O)C(c3cc(Cl)cc(Cl)c3)=C2O)ccc1-c1ccccc1OS(C)(=O)=O [Example 39]	15 (S) μg/mL	
O=C1O/C(=C\c2cccc3ccccc23)C(O)=C1c1cc(Cl)cc(Cl)c1 [Example 70]		39.1
O=C1O/C(=C\c2cccc3ccccc23)C(O)=C1c1ccc(C(F)(F)F)cc1 [Example 71]		> 65.4
COc1cccc(C2=C(O)/C(=C/c3cccc4ccccc34)OC2=O)c1 [Example 72]		> 72.6
COC(=O)c1ccc(C2=C(O)/C(=C/c3cccc4ccccc34)OC2=O)cc1 [Example 74]		> 67.1
CCOC(=O)c1cccc(C2=C(O)C(=Cc3cccc4ccccc34)OC2=O)c1 [Example 75]	>25 (S) μg/mL	
O=Cc1cccc(C2=C(O)/C(=C/c3cccc4ccccc34)OC2=O)c1 [Example 76]		17.5
O=C1O/C(=C\c2cccc3ccccc23)C(O)=C1c1cccc(C=NO)c1 [Example 77]	>25 (S) μg/mL	
CN(C)c1ccc(/C=C2\OC(=O)C(c3ccc(Cl)cc3)=C2O)c2ccccc12 [Example 78]		> 63.8
CN(C)c1ccc(/C=C2\OC(=O)C(c3cc(Cl)cc(Cl)c3)=C2O)c2ccccc12 [Example 79]		32.8
CN(C)c1ccc(C=C2OC(=O)C(c3cc(Cl)cc(Cl)c3)=C2O)c2ccccc12 [Example 80]	15 (S) μg/mL	
CN(C)c1ccc(/C=C2\OC(=O)C(c3ccc(C(F)(F)F)cc3)=C2O)c2ccccc12 [Example 81]		> 58.8
O=C1O/C(=C\c2cccc(-c3cc(Cl)cc(Cl)c3)c2)C(O)=C1c1cc(Cl)cc(Cl)c1 [Example 136]		2.09
O=C1O/C(=C\c2ccccc2-c2ccc(Cl)cc2)C(O)=C1c1ccc(Cl)cc1 [Example 137]		31.8
O=C1O/C(=C\c2ccccc2-c2cccc(Cl)c2)C(O)=C1c1cccc(Cl)c1 [Example 140]		26.9
O=C1O/C(=C\c2ccccc2-c2ccc(Cl)c(Cl)c2)C(O)=C1c1ccc(Cl)c(Cl)c1 [Example 141]		6.27
O=C1O/C(=C\c2cc(C(F)(F)F)ccc2Cl)C(O)=C1c1ccc(N2CCOCC2)c(F)c1 [Example 142]	>25 (S) μg/mL	

System: not given
Assay: not given
Details: not given

Structure (SMILES)	melting point [°C]
O=C1O/C(=C\c2ccc(-c3ccccc3)cc2)C(O)=C1c1cccc(C(F)(F)F)c1 [Example 10]	240 to 241.5
O=C1O/C(=C\C2CCCCC2)C(O)=C1c1ccc(Cl)cc1 [Example 15]	200 to 205
O=C1O/C(=C\c2ccc(Cl)cc2)C(O)=C1c1ccc2ccccc2c1 [Example 43]	243 to 250
O=C1O/C(=C\c2cccc3ccccc23)C(O)=C1c1cccc2ccccc12 [Example 47]	216 to 218
O=C1O/C(=C\c2ccc3ccccc3c2)C(O)=C1c1ccc2ccccc2c1 [Example 52]	285 to 290
O=C1O/C(=C\c2ccc(-c3ccccc3)cc2)C(O)=C1c1ccc(Cl)cc1 [Example 53]	282 to 285
O=C1O/C(=C\c2ccc3ccccc3c2)C(O)=C1c1ccc(Cl)cc1 [Example 54]	284 to 286
O=C1O/C(=C\c2ccc3ccccc3c2)C(O)=C1c1cccc2ccccc12 [Example 56]	235 to 237
O=C1O/C(=C\c2ccc(-c3ccccc3)cc2)C(O)=C1c1cc(Cl)cc(Cl)c1 [Example 67]	279 to 280
O=C1O/C(=C\c2ccc(-c3ccccc3)cc2)C(O)=C1c1cccc(Cl)c1 [Example 69]	248 to 250
O=C1O/C(=C\c2cccc3ccccc23)C(O)=C1c1cc(Cl)cc(Cl)c1 [Example 70]	244 to 245
O=C1O/C(=C\c2cccc3ccccc23)C(O)=C1c1ccc(C(F)(F)F)cc1 [Example 71]	245 to 247
COc1cccc(C2=C(O)/C(=C/c3cccc4ccccc34)OC2=O)c1 [Example 72]	214 to 216
COC(=O)c1ccc(C2=C(O)/C(=C/c3cccc4ccccc34)OC2=O)cc1 [Example 74]	242 to 244
O=Cc1cccc(C2=C(O)/C(=C/c3cccc4ccccc34)OC2=O)c1 [Example 76]	220 to 221
O=C1O/C(=C\C2CCCCC2)C(O)=C1c1ccc(-c2ccccc2)cc1 [Example 100]	204 to 207
O=C1O/C(=C\c2cccnc2)C(O)=C1c1ccc(-c2ccccc2)cc1 [Example 101]	252 to 255
Cc1ccc(/C=C2\OC(=O)C(c3ccc(-c4ccccc4)cc3)=C2O)s1 [Example 104]	235 to 240

System: larvae of blowfly, Lucilia sericata
Assay: whole plant or invertebrate
Details: dose rate of 20 ppm; Lucilia sericata larvae on treated filter paper with bovine serum; assessed at 24 h
Experimental: Comparative Evaluation of the Efficacy of a 3-Aryl-4-hydroxyfuranone Compound Against Blowfly Larvae
In this evaluation, filter paper discs are treated with an acetone solution of test compound and allowed to dry. Bovine serum and newly emerged larvae of blowfly, Lucilia sericata, are added to the treated filter paper. Mortality is assessed at 24 h and 48 h. When more than one evaluation is performed, the data are averaged.

Structure (SMILES)	% Mortality 24 h [%]
O=C1O/C(=C\c2ccc(-c3cccc(C(F)(F)F)c3)cc2)C(O)=C1c1cccc(C(F)(F)F)c1	0

Same assay, conditions: dose rate of 20 ppm; Lucilia sericata larvae on treated filter paper with bovine serum; assessed at 24 h; read-out: % Mortality 24 h

Structure (SMILES)	mortality at 20 ppm [%]
O=C1O/C(=C\c2ccc(-c3cc(Cl)cc(Cl)c3)cc2)C(O)=C1c1cc(Cl)cc(Cl)c1	0
O=C1O/C(=C\c2ccc(C(F)(F)F)cc2)C(O)=C1c1ccc(-c2ccccc2)cc1 [R=H, R1=4-(biphenyl), R2=4-CF3—C6H4]	0
O=C1O/C(=C\c2ccc(-c3ccc(Cl)cc3)cc2)C(O)=C1c1ccc(Cl)cc1 [R=H, R1=4-Cl—C6H4, R2=4-(4′-Cl-biphenyl)]	0
O=C1O/C(=C\c2cccc3ccccc23)C(O)=C1c1ccc(-c2ccccc2)cc1 [R=H, R1=4-biphenyl, R2=1-naphthyl]	100

Same assay, conditions: dose rate of 20 ppm; Lucilia sericata larvae on treated filter paper with bovine serum; assessed at 48 h

Structure (SMILES)	% Mortality 48 h [%]
O=C1O/C(=C\c2ccc(-c3cccc(C(F)(F)F)c3)cc2)C(O)=C1c1cccc(C(F)(F)F)c1	0

Same assay, conditions: dose rate of 20 ppm; Lucilia sericata larvae on treated filter paper with bovine serum; assessed at 48 h; read-out: % Mortality 48 h

Structure (SMILES)	mortality at 20 ppm [%]
O=C1O/C(=C\c2ccc(-c3cc(Cl)cc(Cl)c3)cc2)C(O)=C1c1cc(Cl)cc(Cl)c1	0
O=C1O/C(=C\c2ccc(C(F)(F)F)cc2)C(O)=C1c1ccc(-c2ccccc2)cc1 [R=H, R1=4-(biphenyl), R2=4-CF3—C6H4]	0
O=C1O/C(=C\c2ccc(-c3ccc(Cl)cc3)cc2)C(O)=C1c1ccc(Cl)cc1 [R=H, R1=4-Cl—C6H4, R2=4-(4′-Cl-biphenyl)]	0
O=C1O/C(=C\c2cccc3ccccc23)C(O)=C1c1ccc(-c2ccccc2)cc1 [R=H, R1=4-biphenyl, R2=1-naphthyl]	100

— patent publication US7495027B2, “3-aryl-4-hydroxyfuranone compounds and the human and animal health use thereof” (Wyeth, priority 2003, dated 2009)
